Measured values as given in patent publication US12404304B1, “Telomerase reverse transcriptase (TERT) expression enhancing compounds and methods for using the same” (Sierra Sciences, LLC, priority 2007, dated 2025).
Read-outs that look alike come from different tables or passages of the source.

Columns and labels:
[1] = test system: human TERT expression (hTERT mRNA); experiment: Quantitative real-time RT-PCR of hTERT mRNA expression (Ct, transcripts) in compound-treated cells; format: cell-based
Summary of the method: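 Read-out is cycle threshold, the cycle at which probe fluorescence released by Taq 5′-nuclease activity crosses a set level; Ct falls as hTERT mRNA rises. cDNA of treated and untreated cells was compared, with starting transcripts quantified against a known-cDNA standard curve.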

viable cells in culture = experiment: Cell viability assay (CellTiter-Glo Luminescent Cell Viability Assay, ATP quantitation, percent of vehicle control)
Protocol: Cell viability is determined using a homogeneous method, such as CellTiter-Glo® Luminescent Cell Viability Assay (Promega Corporation, Madison, WI.) to determine the number of viable cells in culture These assays are based on quantitation of the ATP present, which signals the presence of metabolically active cells. Luminescent values of compound treated cells are compared to that of cells treated with vehicle alone to determine the average cell viability as a percent of control.

Compound	Average Number of hTERT Transcripts [1]	Average Cell Viability after 24 Hours (% DMSO) (viable cells in culture)	Average Number of hTERT Transcripts ([1]; quantitative real-time RT-PCR)
O=C(NCCc1c[nH]c2c(OCc3ccccc3)cccc12)c1cc(-c2cccs2)on1 [compound 1498]	16.50	94.63	
Cc1nc(-n2nc(C)c(CCC(=O)Nc3ccc(F)cc3)c2O)sc1C [compound 1138]		87.23	162.66
O=C(NC1CCCC1)c1cc(-c2cccs2)on1 [compound 1184]		88.36	73.49
CC(/C=C/c1ccc(N(C)C)cc1)=N\NC(=N)SC1CC(=O)N(c2ccc(Cl)cc2)C1=O (centres unmarked) [compound 1473]	32.72	69.29	
COc1ccc(-c2cc(=O)n3nc(C)c(-c4ccccc4)c3[nH]2)cc1 [compound 1150]		86.82	80.37
O=C(NNC1=C(C(=O)C(F)(F)F)CCC1)c1ccc(Br)cc1 [compound 1276]		92.70	9.73
COc1ccc(C(=O)NC(=S)Nc2ccc(C(=O)O)cc2)cc1 [compound 1381]	8.62	87.38	
COC(=O)COc1ccc(S(=O)(=O)N2CCCC2)cc1Cl [compound 1437]	22.13	79.26	
CCc1nc2[nH]c3c(c(=O)n2n1)CCC3 [compound 1366]		99.48	10.02
O=C(Nc1nc(-c2ccccn2)cs1)c1cccc(S(=O)(=O)N2CCOCC2)c1 [compound 1173]		86.99	43.63
C=CCc1c(C)nc(SCC(=O)Nc2cc(Cl)cc(Cl)c2)[nH]c1=O [compound 1332]		94.78	12.68
N=c1ccn2c(n1)O[C@@H]1[C@@H](O)[C@H](CO)O[C@@H]12 [compound 1226]		77.96	31.01
Cc1ccn(CCCNC(=O)c2cc(-c3cccs3)on2)n1 [compound 1513]	102.76	82.67	
O=C(CSc1ncccc1C(=O)O)Nc1ccc(Oc2ccccc2)cc1 [compound 1343]		103.75	4.57
CC1=NN(c2ccc(C)c(C)c2)C(=O)/C1=C\NNC(=O)c1ccccc1 [compound 1464]	18.97	67.60	
Cc1nn2c(=O)cc(CSc3nnnn3-c3ccccc3)[nH]c2c1-c1ccc(Cl)cc1 [compound 1163]		70.88	68.40
COC(=O)COc1ccc(CSc2nnc(-c3ccc(Cl)cc3)n2-c2ccccc2)cc1 [compound 1388]	42.56	29.68	
O=C(NCC1CCCO1)c1cc(-c2cccs2)on1 (centres unmarked) [compound 1206]		83.74	80.15
C/C(=N\NC(=O)Cc1ccc(Cl)cc1)c1ccccn1 [compound 1275]		71.98	127.83
COC(=O)CSc1nnc(-c2sc3cc(Cl)ccc3c2Cl)n1C [compound 1435]	48.10	60.23	
Cc1cccc(Nc2nc3nonc3nc2Nc2ccc(F)cc2)c1C [compound 1231]		37.70	61.08
Cc1ccccc1OCC(=O)OCc1ccc([N+](=O)[O-])cc1 [compound 1548]	5.77	99.62	
NCc1ccc(CNC(=O)c2cc(-c3cccs3)on2)cc1 [compound 1489]	3.77	107.24	
CC(C)COc1ccc(NC(=O)C2CC2)cc1 [compound 1352]		83.84	5.61
Cc1cccnc1Nc1nc(-c2ccccn2)cs1 [compound 1195]		95.66	220.50
CCOc1ccc(NC(=O)c2c(NC(=O)c3ccncc3)sc3c2CCC(C(C)(C)C)C3)cc1 (centres unmarked) [compound 1232]		112.57	23.68
CCOC(=O)COc1ccc2c(C)cc(=O)oc2c1C [compound 1308]		90.12	3.16
COC(=O)COc1ccc(NC(=O)c2ccc(F)cc2)cc1 [compound 1414]	203.88	69.42	

Compound	Average Number of hTERT Transcripts [1]	Average Cell Viability after 24 Hours (% DMSO) (viable cells in culture)	Average Number of hTERT Transcripts ([1]; quantitative real-time RT-PCR)
COc1cc(C2C(C(=O)c3ccc(C)o3)=C(O)C(=O)N2CCCN2CCOCC2)cc(OC)c1OC (centres unmarked) [compound 1403]	9.95	95.26	
Cc1oc2cc(OCC(=O)OCc3ccccc3)ccc2c(=O)c1Oc1ccccc1 [compound 1402]	29.82	86.55	
CCC(C)NC(=S)Nc1ccc(F)cc1 (centres unmarked) [compound 1392]	4.99	102.61	
O=C(Cn1cnc2ccccc21)NCCCN1CCOCC1 [compound 1447]	5.30	96.56	
Cc1nnc(SCc2cc(O)n(-c3nc4ccccc4s3)n2)s1 [compound 1141]		71.38	19.39
Cc1cc(OCC(=O)Nc2ccc(S(=O)(=O)Nc3nccs3)cc2)ccc1C(C)C [compound 1396]	12.14	88.25	
O=C(CNC(=O)c1cc(-c2cccs2)on1)c1ccccc1 [compound 1492]	6.45	91.36	
Cc1ccc(Nc2nc3nonc3nc2NC(C)(C)C)cc1C [compound 1229]		79.23	17.57
c1ccc(-c2nc3ccccn3c2Nc2ccc3c(c2)OCCO3)nc1 [compound 1552]	21.09	64.55	
CCCN(CCC)S(=O)(=O)c1cccc(C(=O)Nc2nc(-c3ccccn3)cs2)c1 [compound 1175]		74.43	29.54
Oc1c(C(Nc2ccccn2)c2ccccc2Cl)ccc2cccnc12 (centres unmarked) [compound 1094]		56.64	32.08
O=C(CCc1ccccc1)NC(c1cccc([N+](=O)[O-])c1)c1c(O)ccc2ccccc12 (centres unmarked) [compound 1458]	10.26	62.79	
CS(=O)(=O)N1CCN(c2ccc(NC(=O)c3cccc(OCc4ccccc4)c3)cc2)CC1 [compound 1534]	3.18	90.05	
CC(Oc1cccc2ccccc12)C(=O)NN=Cc1cccc2cccnc12 (centres unmarked) [compound 1284]		73.23	44.70
COc1ccc(COC(=O)C2=C(C)NC3=C(C(=O)CC(c4ccco4)C3)C2c2cccs2)cc1 (centres unmarked) [compound 1243]		99.98	5.18
Cc1nn2c(-c3cccnc3)nnc2s1 [compound 1369]		98.38	15.35
O=C(Nc1nc(-c2ccccn2)cs1)c1ccc(Br)s1 [compound 1171]		56.61	22.66
Cc1ccc(-c2noc(CN3CCOCC3)n2)cc1 [compound 1333]		96.79	3.71
Cc1cc(Br)ccc1NC(=O)Cn1ncc2c(=O)oc3ccccc3c21 [compound 1327]		101.34	4.67
Cc1ccc(N2CC(C(=O)N3CCCC3)CC2=O)c(C)c1 (centres unmarked) [compound 1365]		99.89	10.67
CCc1c(C)nn(-c2nc3ccccc3s2)c1O [compound 1114]		89.40	148.58
CSCCNC(=O)c1cc(-c2cccs2)on1 [compound 1517]	140.89	112.40	
Cc1nc(-n2nc(C)c(CC(=O)N3CCCCC3)c2O)sc1C [compound 1126]		95.13	75.66
CCCOc1ccc2c(c1)c1c3n2CCN(C)C3=NCC1 [compound 1362]		75.90	15.20
CCCc1c(C)[nH]c2c(-c3ccc(Cl)cc3)c(C)nn2c1=O [compound 1155]		80.19	15.30
CCOC(=O)c1ccc(N2C(=O)c3[nH]nc(-c4ccco4)c3C2c2ccc(O)cc2)cc1 (centres unmarked) [compound 1198]		64.75	104.02
O=C(COc1ccc(Cl)cc1)N/N=C/c1cccc2cccnc12 [compound 1290]		62.81	9.13
